These are literature values, as cited in patent US20260000671A1, “CONCENTRATED SOLUTIONS COMPRISING 5,10-METHYLENE-(6R)-TETRAHYDROFOLIC ACID” (Merck Patent GMBH, priority 2022, published 2026).

Take `Nc1nc2c(c(=O)[nH]1)N1CN(c3ccc(C(=O)N[C@@H](CCC(=O)O)C(=O)O)cc3)C[C@H]1CN2` [5,10-methylene-(6R,S)-tetrahydrofolic acid]: where the note is “24 hours following dissolution in water, % normalized purity”, the “purity 24 hours following dissolution in water” value is on record as 44.9 % of the starting purity. Further, the “stability profile in words” value (following dissolution in water, FIG. 1) is “degraded rapidly over time”. For the same molecule, the “purity after 7 hours” value (re-constituted lyophilizate, after 7 hours) is recorded as 84%. For the same molecule, the “purity loss per hour (degradation rate, slope of best-fit line)” value (re-constituted lyophilizate, linear regression of stability profile) was 2.3 % purity per hour.
